Measurements reported in US4677100A, “Cephalosporin derivatives” (Banyu Pharmaceutical Co., Ltd., priority 1984, dated 1987).
≈ marks a conversion by molar mass, not a printed value.

Key:
[1] = tested on: P. cepacia 23; assay: MIC, agar plate dilution method; type: cell-based, Pseudomonas cepacia; conditions: for MIC: Burkholderia cepacia, P. cepacia 23, 10^6 CFU/ml, Sensitivity Disk Agar, read-out: Minimum Inhibitory Concentration; for antibacterial activity relative to the compound of Reference Example: Pseudomonas cepacia 23
Procedure: (§1) The minimum inhibitory concentrations (MIC: μg/ml) of the compounds of the present invention against various microorganisms were measured by an agar plate dilution method (inoculum size: 10^6 CFU/ml) by using Sensitivity Disk Agar (Nissui) in comparison with Cefotaxime and Ceftazidime as comparative compounds.

[2] = tested on: P. maltophilia IID 1275; assay: MIC, agar plate dilution method; type: cell-based, Pseudomonas maltophilia; conditions: for antibacterial activity relative to the compound of Reference Example: Pseudomonas maltophilia resistant to all cephalosporins; for MIC: Stenotrophomonas maltophilia, IID1275, P. maltophilia IID 1275, 10^6 CFU/ml, Sensitivity Disk Agar, read-out: Minimum Inhibitory Concentration
Procedure: as §1

[3] = tested on: Gram-positive bacteria and Gram-negative bacteria; assay: antibacterial activity, general statement; type: cell-based; conditions: sensitive and resistant bacteria
Procedure: as §1

[4] = tested on: E. cloaceae Nek 39; assay: MIC, agar plate dilution method; type: cell-based; conditions: E. cloaceae Nek 39; 10^6 CFU/ml; Sensitivity Disk Agar; read-out: Minimum Inhibitory Concentration
Procedure: as §1

[5] = tested on: A. calcoaceticus No. 14; assay: MIC, agar plate dilution method; type: cell-based; conditions: Acinetobacter calcoaceticus; for MIC: A. calcoaceticus No. 14, 10^6 CFU/ml, Sensitivity Disk Agar, read-out: Minimum Inhibitory Concentration
Procedure: as §1

[6] = tested on: P. vulgaris No. 33; assay: MIC, agar plate dilution method; type: cell-based; conditions: Proteus vulgaris; P. vulgaris No. 33; 10^6 CFU/ml; Sensitivity Disk Agar; read-out: Minimum Inhibitory Concentration
Procedure: as §1

[7] = tested on: K. pneumoniae No. 42; assay: MIC, agar plate dilution method; type: cell-based; conditions: Klebsiella pneumoniae; K. pneumoniae No. 42; 10^6 CFU/ml; Sensitivity Disk Agar; read-out: Minimum Inhibitory Concentration
Procedure: as §1

[8] = tested on: E. coli ML1410/Rte16; assay: MIC, agar plate dilution method; type: cell-based; conditions: Escherichia coli, ML1410/RTE16, read-out: Minimum Inhibitory Concentration
Procedure: as §1

[9] = tested on: E. coli CSH; assay: MIC, agar plate dilution method; type: cell-based; conditions: Escherichia coli, read-out: Minimum Inhibitory Concentration
Procedure: as §1

[10] = tested on: P. vulgaris OB1043; assay: MIC, agar plate dilution method; type: cell-based; conditions: Proteus vulgaris; P. vulgaris OB1043; 10^6 CFU/ml; Sensitivity Disk Agar; read-out: Minimum Inhibitory Concentration
Procedure: as §1

[11] = tested on: E. coli CSH2; assay: MIC, agar plate dilution method; type: cell-based; conditions: Escherichia coli, 10^6 CFU/ml, Sensitivity Disk Agar, read-out: Minimum Inhibitory Concentration
Procedure: as §1

[12] = tested on: E. coli NIHJJC-2; assay: MIC, agar plate dilution method; type: cell-based; conditions: Escherichia coli, NIHJJC2; E. coli NIHJJC-2; 10^6 CFU/ml; Sensitivity Disk Agar; read-out: Minimum Inhibitory Concentration
Procedure: as §1

[13] = tested on: E. coli W3630/Rms212; assay: MIC, agar plate dilution method; type: cell-based; conditions: Escherichia coli, W3630/RMS212, read-out: Minimum Inhibitory Concentration
Procedure: as §1

[14] = tested on: E. coli C/Rms149; assay: MIC, agar plate dilution method; type: cell-based; conditions: Escherichia coli, read-out: Minimum Inhibitory Concentration
Procedure: as §1

[15] = tested on: S. marcescens No. 16-2; assay: MIC, agar plate dilution method; type: cell-based; conditions: Serratia marcescens, NO.162; S. marcescens No. 16-2; 10^6 CFU/ml; Sensitivity Disk Agar; read-out: Minimum Inhibitory Concentration
Procedure: as §1

[16] = tested on: S. aureus JS-1; assay: MIC, agar plate dilution method; type: cell-based; conditions: Staphylococcus aureus, JS1; S. aureus JS-1; 10^6 CFU/ml; Sensitivity Disk Agar; read-out: Minimum Inhibitory Concentration
Procedure: as §1

[17] = tested on: P. mirabilis JY10; assay: MIC, agar plate dilution method; type: cell-based; conditions: Proteus mirabilis; P. mirabilis JY10; 10^6 CFU/ml; Sensitivity Disk Agar; read-out: Minimum Inhibitory Concentration
Procedure: as §1

[18] = tested on: E. coli W3630/Rms213; assay: MIC, agar plate dilution method; type: cell-based; conditions: Escherichia coli, W3630/RMS213, read-out: Minimum Inhibitory Concentration
Procedure: as §1

[19] = tested on: C. freundii No. 7; assay: MIC, agar plate dilution method; type: cell-based; conditions: Citrobacter freundii; C. freundii No. 7; 10^6 CFU/ml; Sensitivity Disk Agar; read-out: Minimum Inhibitory Concentration
Procedure: as §1

[20] = tested on: S. aureus NIHJJC-1; assay: MIC, agar plate dilution method; type: cell-based; conditions: Staphylococcus aureus, NIHJJC1; S. aureus NIHJJC-1; 10^6 CFU/ml; Sensitivity Disk Agar; read-out: Minimum Inhibitory Concentration
Procedure: as §1

[21] = tested on: P. aeruginosa AKR17; assay: MIC, agar plate dilution method; type: cell-based, Pseudomonas aeruginosa; conditions: for antibacterial activity relative to the compound of Reference Example: Pseudomonas aeruginosa AKR-17, resistant to all cephalosporins including Ceftazidime; for MIC: Pseudomonas aeruginosa, P. aeruginosa AKR17, 10^6 CFU/ml, Sensitivity Disk Agar, read-out: Minimum Inhibitory Concentration
Procedure: as §1

[22] = tested on: P. aeruginosa AK109; assay: MIC, agar plate dilution method; type: cell-based, Pseudomonas aeruginosa; conditions: for antibacterial activity relative to the compound of Reference Example: Pseudomonas aeruginosa AK109; for MIC: Pseudomonas aeruginosa, P. aeruginosa AK109, 10^6 CFU/ml, Sensitivity Disk Agar, read-out: Minimum Inhibitory Concentration
Procedure: as §1

| SMILES | MIC [1] | antibacterial activity relative to the compound of Reference Example [1] | MIC [2] | antibacterial activity (in words) [3] | MIC [4] | antibacterial activity relative to the compound of Reference Example [5] | MIC [5] | MIC [6] | MIC [7] | MIC [8] | MIC [9] | MIC [10] | MIC [11] | MIC [12] | MIC [13] | MIC [14] | MIC [15] | MIC [16] | MIC [17] | MIC [18] | also measured |
| --- | --- | --- | --- | --- | --- | --- | --- | --- | --- | --- | --- | --- | --- | --- | --- | --- | --- | --- | --- | --- | --- |
| C[N+]1(CC2=C(C(=O)[O-])N3C(=O)C(NC(=O)C(=NOCC(=O)O)c4csc(N)n4)C3SC2)Cc2cc(O)c(O)cc2C1 (centres unmarked) [Ex. 8-E, 7-[(Z)-2-(2-aminothiazol-4-yl)-2-carboxymethoxyimino)acetamido]-3-(5,6-dihydroxy-2-methyl-2-isoindolinium)methyl-3-cephem-4-carboxylate] | ≤ 0.05 µg/mL | at least 32 times | 6.25 µg/mL (≈ 10.3 µM) | particularly strong antibacterial activities | ≤ 0.05 µg/mL | at least 32 times | ≤ 0.05 µg/mL | 0.1 µg/mL (≈ 0.165 µM) | ≤ 0.05 µg/mL | ≤ 0.05 µg/mL | 0.1 µg/mL (≈ 0.165 µM) | 0.2 µg/mL (≈ 0.331 µM) | ≤ 0.05 µg/mL | ≤ 0.05 µg/mL | ≤ 0.05 µg/mL | ≤ 0.05 µg/mL | 0.78 µg/mL (≈ 1.29 µM) | > 25 µg/mL | 0.2 µg/mL (≈ 0.331 µM) | ≤ 0.05 µg/mL | antibacterial activity relative to the compound of Reference Example [2]: at least twice as strong; MIC [19]: 0.78 µg/mL (≈ 1.29 µM); MIC [20]: 12.5 µg/mL (≈ 20.7 µM); antibacterial activity relative to the compound of Reference Example [21]: at least 32 times; MIC [21]: 0.2 µg/mL (≈ 0.331 µM); antibacterial activity relative to the compound of Reference Example [22]: at least 16 times; MIC [22]: ≤ 0.05 µg/mL |
| CO/N=C(\C(=O)NC1C(=O)N2C(C(=O)[O-])=C(C[N+]3(C)Cc4cc(OC(C)=O)c(OC(C)=O)cc4C3)CSC12)c1csc(N)n1 (centres unmarked) [Ex. 3-D] | 0.39 µg/mL (≈ 0.605 µM) | at least 32 times | 25 µg/mL (≈ 38.8 µM) | particularly strong antibacterial activities | ≤ 0.05 µg/mL | at least 32 times | 0.2 µg/mL (≈ 0.31 µM) | 0.2 µg/mL (≈ 0.31 µM) | 0.2 µg/mL (≈ 0.31 µM) | 0.1 µg/mL (≈ 0.155 µM) | 1.56 µg/mL (≈ 2.42 µM) | 3.12 µg/mL (≈ 4.84 µM) | 0.2 µg/mL (≈ 0.31 µM) | ≤ 0.05 µg/mL | ≤ 0.05 µg/mL | 0.1 µg/mL (≈ 0.155 µM) | 6.25 µg/mL (≈ 9.69 µM) | 25 µg/mL (≈ 38.8 µM) | 0.39 µg/mL (≈ 0.605 µM) | 0.78 µg/mL (≈ 1.21 µM) | MIC [19]: 6.25 µg/mL (≈ 9.69 µM); MIC [20]: 6.25 µg/mL (≈ 9.69 µM); antibacterial activity relative to the compound of Reference Example [21]: at least 32 times; MIC [21]: 0.78 µg/mL (≈ 1.21 µM); antibacterial activity relative to the compound of Reference Example [22]: at least 16 times; MIC [22]: 0.2 µg/mL (≈ 0.31 µM) |
| CC(C)ON=C(C(=O)NC1C(=O)N2C(C(=O)[O-])=C(C[N+]3(C)Cc4cc(O)c(O)cc4C3)CSC12)c1csc(N)n1 (centres unmarked) [Ex. 9-C, 7-[(Z)-2-(2-aminothiazol-4-yl)-2-isopropoxyiminoacetamido]-3-(5,6-dihydroxy-2-methyl-2-isoindolinium) methyl-3-cephem-4-carboxylate] | ≤ 0.05 µg/mL | at least 32 times | 3.12 µg/mL (≈ 5.3 µM) | particularly strong antibacterial activities | ≤ 0.05 µg/mL | at least 32 times | 0.2 µg/mL (≈ 0.34 µM) | 0.1 µg/mL (≈ 0.17 µM) | 0.1 µg/mL (≈ 0.17 µM) | ≤ 0.05 µg/mL | 0.1 µg/mL (≈ 0.17 µM) | 0.2 µg/mL (≈ 0.34 µM) | ≤ 0.05 µg/mL | ≤ 0.05 µg/mL | ≤ 0.05 µg/mL | ≤ 0.05 µg/mL | 0.78 µg/mL (≈ 1.33 µM) | 12.5 µg/mL (≈ 21.2 µM) | 0.1 µg/mL (≈ 0.17 µM) | ≤ 0.05 µg/mL | antibacterial activity relative to the compound of Reference Example [2]: at least twice as strong; MIC [19]: 3.12 µg/mL (≈ 5.3 µM); MIC [20]: 6.25 µg/mL (≈ 10.6 µM); antibacterial activity relative to the compound of Reference Example [21]: at least 32 times; MIC [21]: 0.39 µg/mL (≈ 0.663 µM); antibacterial activity relative to the compound of Reference Example [22]: at least 16 times; MIC [22]: ≤ 0.05 µg/mL |
